{"source": "patent US20140357512A1", "about": "“HISTONE DEACETYLASE (HDAC) BIOMARKERS IN MULTIPLE MYELOMA” (priority 2013, published 2014)", "test_system": "human myeloma cell line MM.1S", "assay": "SILAC acetylated-lysine peptide profiling, HDAC inhibitor vs DMSO (light/heavy ratio)", "format": "cell-based", "excerpt": "An embodiment of the invention comprises utilizing the SILAC method in order to quantitate changes in protein expression between two or more populations of cells. The SILAC method is a technique based on mass spectrometry that detects differences in protein abundance among samples using non-radioactive isotopic labeling. The SILAC method is known in the art, and described in detail in Ong et al., “Stable Isotope Labeling by Amino Acids in Cell Culture, SILAC, as a Simple and Accurate Approach to Expression Proteomics”, Molecular & Cellular Proteomics, vol. 1, pp. 376-386 (2002), which is incorporated herein by reference in its entirety.\nBriefly, the SILAC method involves growing two populations of cells in cell culture. The first population of cells is grown in growth media containing normal amino acids (“normal media”). The second population of cells is grown in media lacking a standard essential amino acid (such as lysine), but is then supplemented with a non-radioactive, isotopically labeled form of that essential amino acid (such as lysine labeled with ^13C atoms, rather than normal ^12C atoms), which is called “heavy media”. When the two populations of cells are each growing in the medium, they incorporate the amino acids into all of their proteins. The growth of cells maintained in the heavy media is no different from that in normal media. All peptides containing the heavy amino acids are heavier than their normal counterparts. The cells from each of the two populations of cells are lysed. The lysates from each of the two cell populations are then combined. The combined cell lysates are then analyzed by mass spectrometry. Pairs of chemically identical peptides of different stable isotope composition can be differentiated in a mass spectrometer due to their difference in mass. The ratio of peak intensities in the mass spectrum for such peptide pairs reflects the abundance ratio for the two proteins.\nThis example describes SILAC studies that were performed to compare the effects of three different HDAC inhibitors (Compound A, Compound B, and tubastatin A) to a control on a human multiple myeloma cell line. The HDAC inhibitors were also compared amongst themselves to determine differences in their effects.\nA human myeloma cell line MM.1S was grown using either ^12C (light) or ^13C (heavy) lysine containing culture medium. The “heavy” cells were treated with DMSO as the control, and the “light” cells were treated with a single HDAC inhibitor at 37° C. for 6 hours. The heavy and light cells were lysed, and the lysates were mixed in 1:1 ratio and digested with the protease trypsin. The acetylated lysine containing peptides (due to the action of the HDAC inhibitor) in the digested peptide pool were captured by a non-specific anti-acetylated lysine antibody cocktail (the antibodies identify both light and heavy acetylated peptides), and subjected to mass spectrometry analysis in order to identify thousands of individual peptides.\nThousands of peptides were identified in pairs (^12C and ^13C) due to their known mass differences. The amino acid sequence and quantitative ratio (Light/Heavy) of a given peptide in two differentially treated cell lysates were then determined and annotated with their possible protein (gene) sources.\nAs stated above, three HDAC inhibitors (Compound A, Compound B, and Tubastatin A) were used. Thus, the SILAC method was performed three times, with a different HDAC inhibitor compared to a control each time. Accordingly, there are three pairs of quantitative data in the table below, i.e., Compound A:DMSO, Compound B:DMSO, and Tubastatin A:DMSO. A cut-off of 1.30 fold of change (increase or decrease) was then used to determine “changed” or “+” in the table, and any peptides with a fold of change less than 1.3 fold were determined to be “unchanged” or “0” in the table. Those peptides that were not identified were marked as “NA” in the table. […]", "data": [{"smiles": "O=C(CCCCCCNC(=O)c1cnc(N(c2ccccc2)c2ccccc2)nc1)NO", "note": "[Compound A, 2-(diphenylamino)-N-(7-(hydroxyamino)-7-oxoheptyl)pyrimidine-5-carboxamide]", "values": [{"measurement": "light to heavy ratio (L/H ratio), log 2 scale, acetylated peptide PEPAK(ac)SAPAPKK (SEQ ID NO: 795)", "setting": "Histone H2B type 2-E [6], gene HIST2H2BE, drug:DMSO", "value": 1.00}, {"measurement": "light to heavy ratio (L/H ratio), log 2 scale, acetylated peptide K(ac)AVTK(ac)AQK (SEQ ID NO: 794)", "setting": "Histone H2B type 2-E [17:21], gene HIST2H2BE, drug:DMSO", "value": 1.00}, {"measurement": "light to heavy ratio (L/H ratio) of acetylated peptide AVTK(ac)AQK(ac)K (SEQ ID NO: 560)", "setting": "Histone H2B type 2-E [21:24], gene HIST2H2BE, inhibitor:DMSO", "value": 0.40, "unit": "log 2"}, {"measurement": "light to heavy ratio (L/H ratio) of acetylated peptide K(ac)STGGK(ac)APR (SEQ ID NO: 310)", "setting": "Histone H3.2 [10:15], HIST2H3D, HIST2H3A, HIST2H3C, drug:DMSO", "value": 1.00, "unit": "log 2"}, {"measurement": "light to heavy ratio (L/H ratio), log 2 scale, acetylated peptide K(ac)QLATK(ac)AAR (SEQ ID NO: 796)", "setting": "Histone H3.2 [19:24], gene HIST2H3D, HIST2H3A, HIST2H3C, drug:DMSO", "value": 1.00}, {"measurement": "light to heavy ratio (L/H ratio) of acetylated peptide GK(ac)GGK(ac)GLGK (SEQ ID NO: 311)", "setting": "Histone H4 [6:9], HIST2H4B, HIST1H4C and other H4 genes, drug:DMSO", "value": 1.00, "unit": "log 2"}, {"measurement": "light to heavy ratio (L/H ratio) of acetylated peptide GLGK(ac)GGAK(ac)R (SEQ ID NO: 312)", "setting": "Histone H4 [13:17], HIST2H4B, HIST1H4C and other H4 genes, drug:DMSO", "value": 1.00, "unit": "log 2"}, {"measurement": "light to heavy ratio (L/H ratio) of acetylated peptide GLGK(ac)GGAKR (SEQ ID NO: 313)", "setting": "Histone H4 [13], HIST2H4B, HIST1H4C and other H4 genes, drug:DMSO", "value": 1.00, "unit": "log 2"}, {"measurement": "light to heavy ratio (L/H ratio) of acetylated peptide DGLQNEK(ac)NIVSTPVK (SEQ ID NO: 268)", "setting": "Hydroxymethylglutaryl-CoA lyase mitochondrial [48], HMGCL, drug:DMSO", "value": 0.45, "unit": "log 2"}, {"measurement": "light to heavy ratio (L/H ratio) of acetylated peptide K(ac)[…] (SEQ ID NO: 594)", "setting": "Hydroxymethylglutaryl-CoA lyase mitochondrial [137], gene HMGCL, inhibitor:DMSO", "value": 0.45, "unit": "log 2"}, {"measurement": "L/H ratio of acetylated peptide […](ac)SHR (SEQ ID NO: 56)", "setting": "IGLV2-14, IGLC2 [208], log 2 scale, drug vs DMSO", "value": 0.00}, {"measurement": "light to heavy ratio (L/H ratio) of acetylated peptide, log 2 scale", "setting": "IGQGYLIK(ac)DGK (SEQ ID NO: 249), 60S ribosomal protein L3 [294], SNORD43, RPL3", "value": "−0.44"}, {"measurement": "L/H ratio of acetylated peptide", "setting": "IK(ac)[…] (SEQ ID NO: 480), Isoform 2 of Heat shock protein HSP 90-alpha [403], HSP90AA1", "value": 0.39, "unit": "log 2"}, {"measurement": "L/H ratio of acetylated peptide", "setting": "IVQK(ac)[…] (SEQ ID NO: 489), Death-associated protein 1 [29], DAP", "value": 1.00, "unit": "log 2"}, {"measurement": "light to heavy ratio (L/H ratio), log 2 scale, acetylated peptide ADLIK(ac)QYGR (SEQ ID NO: 798)", "setting": "Inactive hydroxysteroid dehydrogenase-like protein 1 [64], gene HSDL1, drug:DMSO", "value": 1.00}, {"measurement": "light to heavy ratio (L/H ratio), log 2 scale, acetylated peptide LMK(ac)ICMNEDPAK (SEQ ID NO: 800)", "setting": "Integrin-linked protein kinase [426], gene ILK, drug:DMSO", "value": 1.00}, {"measurement": "light to heavy ratio (L/H ratio) of acetylated peptide HAHGDQYK(ac)ATDFVADR (SEQ ID NO: 574)", "setting": "Isocitrate dehydrogenase [NADP] mitochondrial [180], gene IDH2, inhibitor:DMSO", "value": 0.42, "unit": "log 2"}, {"measurement": "light to heavy ratio (L/H ratio) of acetylated peptide AGTFK(ac)MVFTPK (SEQ ID NO: 606)", "setting": "Isocitrate dehydrogenase [NADP] mitochondrial [193], gene IDH2, inhibitor:DMSO", "value": 0.46, "unit": "log 2"}, {"measurement": "light to heavy ratio (L/H ratio) of acetylated peptide TDFDKNK(ac)IWYEHR (SEQ ID NO: 555)", "setting": "Isocitrate dehydrogenase [NADP] mitochondrial [282], gene IDH2, inhibitor:DMSO", "value": 0.40, "unit": "log 2"}, {"measurement": "light to heavy ratio (L/H ratio) of acetylated peptide AVLIDK(ac)DQSPK (SEQ ID NO: 577)", "setting": "Isoform 1 of 3-hydroxyisobutyryl-CoA hydrolase mitochondrial [353], gene HIBCH, inhibitor:DMSO", "value": 0.43, "unit": "log 2"}, {"measurement": "light to heavy ratio (L/H ratio) of acetylated peptide TSSAFVGK(ac)TPEASPEPK (SEQ ID NO: 598)", "setting": "Isoform 1 of 26S proteasome non-ATPase regulatory subunit 1 [310], gene PSMD1, inhibitor:DMSO", "value": 0.46, "unit": "log 2"}, {"measurement": "light to heavy ratio (L/H ratio) of acetylated peptide […](ac)VVQER (SEQ ID NO: 318)", "setting": "Isoform 1 of 39S ribosomal protein L47 mitochondrial [144], MRPL47, drug:DMSO", "value": 1.00, "unit": "log 2"}, {"measurement": "light to heavy ratio (L/H ratio) of acetylated peptide ATVPK(ac)TEIR (SEQ ID NO: 272)", "setting": "Isoform 1 of 40S ribosomal protein S24 [37], RPS24, drug:DMSO", "value": 0.47, "unit": "log 2"}, {"measurement": "light to heavy ratio (L/H ratio) of acetylated peptide AEEILEK(ac)GLK (SEQ ID NO: 547)", "setting": "Isoform 1 of 60S ribosomal protein L11 [85], gene RPL11, inhibitor:DMSO", "value": 0.39, "unit": "log 2"}, {"measurement": "light to heavy ratio (L/H ratio) of acetylated peptide ISK(ac)EEAMR (SEQ ID NO: 299)", "setting": "Isoform 1 of 60S ribosomal protein L11 [159], RPL11, drug:DMSO", "value": 0.84, "unit": "log 2"}, {"measurement": "light to heavy ratio (L/H ratio) of acetylated peptide AGLVDDFEK(ac)K (SEQ ID NO: 301)", "setting": "Isoform 1 of ATP synthase subunit d mitochondrial [72], ATP5H, drug:DMSO", "value": 0.86, "unit": "log 2"}, {"measurement": "light to heavy ratio (L/H ratio) of acetylated peptide VPVPEDK(ac)[…] (SEQ ID NO: 290)", "setting": "Isoform 1 of ATP synthase subunit d mitochondrial [85], ATP5H, drug:DMSO", "value": 0.66, "unit": "log 2"}, {"measurement": "light to heavy ratio (L/H ratio) of acetylated peptide GK(ac)FGNVYLAR (SEQ ID NO: 537)", "setting": "Isoform 1 of Aurora kinase C [53], gene AURKC, inhibitor:DMSO", "value": "−0.39", "unit": "log 2"}, {"measurement": "light to heavy ratio (L/H ratio) of acetylated peptide VWNYK(ac)LR (SEQ ID NO: 593)", "setting": "Isoform 1 of Coatomer subunit alpha [81], gene COPA, inhibitor:DMSO", "value": 0.45, "unit": "log 2"}, {"measurement": "light to heavy ratio (L/H ratio) of acetylated peptide SLLK(ac)PFCAALLK (SEQ ID NO: 329)", "setting": "Isoform 1 of Cytoskeleton-associated protein 5 [438], CKAP5, drug:DMSO", "value": 0.00, "unit": "log 2"}, {"measurement": "light to heavy ratio (L/H ratio) of acetylated peptide VLGTVK(ac)WFNVR (SEQ ID NO: 515)", "setting": "Isoform 1 of DNA-binding protein A [96], gene CSDA, inhibitor:DMSO", "value": "−0.57", "unit": "log 2"}, {"measurement": "light to heavy ratio (L/H ratio) of acetylated peptide TLK(ac)ALEYVFK (SEQ ID NO: 516)", "setting": "Isoform 1 of Dedicator of cytokinesis protein 2 [738], gene DOCK2, inhibitor:DMSO", "value": "−0.57", "unit": "log 2"}, {"measurement": "light to heavy ratio (L/H ratio), log 2 scale, acetylated peptide VAFK(ac)YCQK (SEQ ID NO: 775)", "setting": "Isoform 1 of Dolichyl-phosphate beta-glucosyltransferase [122], gene ALG5, drug:DMSO", "value": 1.00}, {"measurement": "light to heavy ratio (L/H ratio), log 2 scale, acetylated peptide ILSK(ac)LSEETK (SEQ ID NO: 759)", "setting": "Isoform 1 of E3 UFM1-protein ligase 1 [614], gene UFL1, drug:DMSO", "value": 0.91}, {"measurement": "light to heavy ratio (L/H ratio), log 2 scale, acetylated peptide NEEATK(ac)HLECTK (SEQ ID NO: 785)", "setting": "Isoform 1 of Fragile X mental retardation syndrome-related protein 1 [207], gene FXR1, drug:DMSO", "value": 1.00}, {"measurement": "light to heavy ratio (L/H ratio) of acetylated peptide ELEK(ac)VCNPIITK (SEQ ID NO: 612)", "setting": "Isoform 1 of Heat shock cognate 71 kDa protein [601], gene HSPA8, inhibitor:DMSO", "value": 0.47, "unit": "log 2"}]}]}
